Assay [1] deals with T1, wild type human RORγt ligand binding domain (RORyt LBD) (Homo sapiens, UniProt P51449).
T1 construct: His-tag (N); TurboTEV protease cleavage site (ENLYFQG) (N); made in house; host or cells: E. coli (pHIS1, modified pET vector)
T1 sequence (P51449 258-518): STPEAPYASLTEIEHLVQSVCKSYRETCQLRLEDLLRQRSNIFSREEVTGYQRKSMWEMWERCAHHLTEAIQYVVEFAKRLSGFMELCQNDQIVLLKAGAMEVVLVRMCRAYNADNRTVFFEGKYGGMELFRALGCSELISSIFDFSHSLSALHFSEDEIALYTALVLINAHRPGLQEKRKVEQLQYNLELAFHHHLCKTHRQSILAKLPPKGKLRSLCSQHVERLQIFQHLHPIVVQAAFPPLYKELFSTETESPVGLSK
The experiment in a line: RORγt ThermoFluor assay (thermal shift, binding affinity KD).

Assay [2] deals with T2, wild type human RORγt LBD (Homo sapiens, UniProt P51449).
T2 construct: expressed in transfected cells; host or cells: HEK293T
T2 sequence (P51449 258-518): T1 sequence (P51449 258-518)
In words: RORγt (LBD) Reporter Assay (GAL4-luciferase, HEK293T cells). The settings on record: for RORγt (LBD) Reporter Assay, % inhibition @ 6 µM: 6 µM compound concentration; for IC50: HEK293T cells, value after the comma with ∼, > or < could not be included in the average; for inhibition at 6 µM: HEK-293T, read-out: RORγt (LBD) Reporter Assay, % inhibition @ 6 µM, 6 µM compound concentration. It counts as cell-based.

Each structure is given as a SMILES string.

As usually defined, the Kd is the equilibrium constant for the complex coming apart. In general, IC50 refers to the midpoint of a concentration-inhibition curve.

Turning to `COc1nc2ccc(C(O)(c3cnnn3C)c3cnc(C)n3C)cc2c(C#N)c1Cc1ccc(F)cc1` (single isomer, unassigned) [Example 66c, 6-((1,2-Dimethyl-1H-imidazol-5-yl)(hydroxy)(1-methyl-1H-1,2,3-triazol-5-yl)methyl)-3-(4-fluorobenzyl)-2-methoxyquinoline4-carbonitrile], the dissociation constant (Kd) in assay [1] amounted to 2.2 nM. For the same molecule, in assay [2] (6 µM), the “RORγt (LBD) Reporter Assay, % inhibition @ 6 µM” value (“RORγt … % inhibition @ 6 µM” below) turned out to be 90%. Moreover, the half-maximal inhibitory concentration (IC50) in assay [2] came out at 2.6 nM.

On to `COc1nc2ccc(C(O)(c3ccccc3)C3CCN(C(C)=O)CC3)cc2c(Cl)c1Cc1ccc(C(F)(F)F)cc1` (single isomer, unassigned) [Example 69b, 1-(4-((4-Chloro-2-methoxy-3-(4-(trifluoromethyl)benzyl)quinolin-6-yl)(hydroxy)(phenyl)methyl)piperidin-1-yl)ethanone], for which, in assay [1], the Kd was 1.8 nM. Moreover, in assay [2], the half-inhibitory concentration (IC50) is 36 nM and the inhibition at 6 µM was found to be 100%.

On to `COc1nc2ccc(C(O)(c3ccccc3)C3CCN(C(C)=O)CC3)cc2c(Cl)c1Cc1ccc(C(F)(F)F)cc1` (single isomer, unassigned) [Example 69c, 1-(4-((4-Chloro-2-methoxy-3-(4-(trifluoromethyl)benzyl)quinolin-6-yl)(hydroxy)(phenyl)methyl)piperidin-1-yl)ethanone], for which the Kd in assay [1] amounted to 35 nM. In assay [2] (6 µM), the “RORγt … % inhibition @ 6 µM” value was 99%. The concentration for half-maximal inhibition (IC50) in assay [2] worked out at 69 nM.

Regarding `COc1nc2ccc(C(N)(c3ccc(C(F)(F)F)nc3)c3cncn3C)cc2c(Cl)c1Cc1cc2ccccc2s1` (single isomer, unassigned) [Example 71b, (3-(Benzo[b]thiophen-2-ylmethyl)-4-chloro-2-methoxyquinolin-6-yl)(1-methyl-1H-imidazol-5-yl)(6-(trifluoromethyl)pyridin-3-yl)methanamine], the dissociation constant (Kd) in assay [1] stood at 32 nM. Besides, in assay [2], the half-inhibitory concentration (IC50) was 230 nM and the inhibition at 6 µM came to 96%.

With `COc1nc2ccc(C(N)(c3ccc(C(F)(F)F)nc3)c3cncn3C)cc2c(Cl)c1Cc1cc2ccccc2s1` (single isomer, unassigned) [Example 71c, (3-(Benzo[b]thiophen-2-ylmethyl)-4-chloro-2-methoxyquinolin-6-yl)(1-methyl-1H-imidazol-5-yl)(6-(trifluoromethyl)pyridin-3-yl)methanamine], the equilibrium dissociation constant (Kd) in assay [1] turned out to be 270 nM. For the same molecule, the “RORγt … % inhibition @ 6 µM” value in assay [2] (6 µM) is 94%. The same molecule had an IC50 in assay [2] of 830 nM.

As for `CC(=O)N1CCC(C(O)(c2ccccc2)c2ccc3nc(Cl)c(Cc4cncnc4)c(OC(F)F)c3c2)CC1` (single isomer, unassigned) [Example 73b, 1-(4-((2-Chloro-4-(difluoromethoxy)-3-(pyrimidin-5-ylmethyl)quinolin-6-yl)(hydroxy)(phenyl)methyl)piperidin-1-yl)ethanone], the Kd in assay [1] was 44 nM. Besides, in assay [2], inhibition was half-maximal at 700 nM (IC50) and the inhibition at 6 µM was found to be 35%.

Take `CC(=O)N1CCC(C(O)(c2ccccc2)c2ccc3nc(Cl)c(Cc4cncnc4)c(OC(F)F)c3c2)CC1` (single isomer, unassigned) [Example 73c, 1-(4-((2-Chloro-4-(difluoromethoxy)-3-(pyrimidin-5-ylmethyl)quinolin-6-yl)(hydroxy)(phenyl)methyl)piperidin-1-yl)ethanone]: the dissociation constant Kd in assay [1] stood at 480 nM. Further, the “RORγt … % inhibition @ 6 µM” value in assay [2] (6 µM) is listed as 21%. Further, in assay [2], the IC50 was greater than 6000 nM.

As to `COc1nc2ccc(C(O)(c3cnnn3C)C3CCN(C(C)=O)CC3)cc2c(Cl)c1Cc1ccc(C(F)(F)F)cc1` (single isomer, unassigned) [Example 74b, 1-(4-((4-Chloro-2-methoxy-3-(4-(trifluoromethyl)benzyl)quinolin-6-yl)(hydroxy)(1-methyl-1H-1,2,3-triazol-5-yl)methyl)piperidin-1-yl)ethanone], the Kd in assay [1] worked out at 5 nM. Besides, in assay [2], the midpoint of inhibition, the IC50, lay at 15 nM and the inhibition at 6 µM was 102%.

Regarding `COc1nc2ccc(C(O)(c3cnnn3C)C3CCN(C(C)=O)CC3)cc2c(Cl)c1Cc1ccc(C(F)(F)F)cc1` (single isomer, unassigned) [Example 74c, 1-(4-((4-Chloro-2-methoxy-3-(4-(trifluoromethyl)benzyl)quinolin-6-yl)(hydroxy)(1-methyl-1H-1,2,3-triazol-5-yl)methyl)piperidin-1-yl)ethanone], the Kd in assay [1] was determined as 7.7 nM. Also, in assay [2] (6 µM), the “RORγt … % inhibition @ 6 µM” value is given as 101%. This molecule registered a 50% inhibitory concentration (IC50) in assay [2] of 20 nM.

On to `CC(=O)N1CCC(C(O)(c2ccc(C(F)(F)F)nc2)c2cc(C)c3nc(C#N)c(Cc4ccc(-n5cccn5)cc4)c(C#N)c3c2)CC1` (single isomer, unassigned) [Example 79b, 3-(4-(1H-Pyrazol-1-yl)benzyl)-6-((1-acetylpiperidin-4-yl)(hydroxy)(6(trifluoromethyl)pyridin-3-yl)methyl)-8-methylquinoline-2,4-dicarbonitrile], for which, in assay [1], the equilibrium dissociation constant (Kd) amounted to 580 nM. Besides, in assay [2], the IC50 turned out to be 760 nM and the inhibition at 6 µM came to 92%.

As to `CC(=O)N1CCC(C(O)(c2ccc(C(F)(F)F)nc2)c2cc(C)c3nc(C#N)c(Cc4ccc(-n5cccn5)cc4)c(C#N)c3c2)CC1` (single isomer, unassigned) [Example 79c, 3-(4-(1H-Pyrazol-1-yl)benzyl)-6-((1-acetylpiperidin-4-yl)(hydroxy)(6(trifluoromethyl)pyridin-3-yl)methyl)-8-methylquinoline-2,4-dicarbonitrile], the equilibrium dissociation constant (Kd) in assay [1] came out at 45 nM. Moreover, the “RORγt … % inhibition @ 6 µM” value in assay [2] (6 µM) turned out to be 103%. The same molecule gave an IC50 in assay [2] of 230 nM.

For `CC(=O)N1CCC(C(O)(c2cc(C)c3nc(C#N)c(Cc4ccc(-n5cccn5)cc4)c(C#N)c3c2)c2cncn2C)CC1` (single isomer, unassigned) [Example 81b, 3-(4-(1H-Pyrazol-1-yl)benzyl)-6-((1-acetylpiperidin-4-yl)(hydroxy)(1-methyl-1H-imidazol-5-yl)methyl)-8-methylquinoline-2,4-dicarbonitrile], the Kd in assay [1] was found to be 36 nM. In addition, in assay [2], the 50% inhibitory concentration (IC50) amounted to 310 nM and the inhibition at 6 µM amounted to 97%.

As for `CC(=O)N1CCC(C(O)(c2cc(C)c3nc(C#N)c(Cc4ccc(-n5cccn5)cc4)c(C#N)c3c2)c2cncn2C)CC1` (single isomer, unassigned) [Example 81c, 3-(4-(1H-Pyrazol-1-yl)benzyl)-6-((1-acetylpiperidin-4-yl)(hydroxy)(1-methyl-1H-imidazol-5-yl)methyl)-8-methylquinoline-2,4-dicarbonitrile], the dissociation constant Kd in assay [1] is 49 nM. Besides, in assay [2], the “RORγt … % inhibition @ 6 µM” value was determined as 97% and half-maximal inhibition (IC50) was put at 560 nM.

`Cc1cc(C(O)(c2ccnc(C(F)(F)F)c2)c2cncn2C)cc2c(C#N)c(Cc3ccc(-n4cccn4)cc3)c(C#N)nc12` (single isomer, unassigned) [Example 83b, 3-(4-(1H-Pyrazol-1-yl)benzyl)-6-(hydroxy(1-methyl-1H-imidazol-5-yl)(2-(trifluoromethyl)pyridin-4-yl)methyl)-8-methylquinoline-2,4-dicarbonitrile]: the Kd in assay [1] amounted to 0.67 nM. Moreover, in assay [2], the IC50 stood at 13 nM and the inhibition at 6 µM amounted to 104%.

Regarding `Cc1cc(C(O)(c2ccnc(C(F)(F)F)c2)c2cncn2C)cc2c(C#N)c(Cc3ccc(-n4cccn4)cc3)c(C#N)nc12` (single isomer, unassigned) [Example 83c, 3-(4-(1H-Pyrazol-1-yl)benzyl)-6-(hydroxy(1-methyl-1H-imidazol-5-yl)(2-(trifluoromethyl)pyridin-4-yl)methyl)-8-methylquinoline-2,4-dicarbonitrile], the dissociation constant (Kd) in assay [1] came out at 450 nM. In assay [2] (6 µM), the “RORγt … % inhibition @ 6 µM” value worked out at 100%. The 50% inhibitory concentration (IC50) in assay [2] amounted to 1500 nM.

With `COc1nc2ccc(C(O)(c3cc(C)nc(C)c3)c3cnnn3C)cc2c(Cl)c1Cc1ccc(C(F)(F)F)cc1` (single isomer, unassigned) [Example 84b, (4-Chloro-2-methoxy-3-(4-(trifluoromethyl)benzyl)quinolin-6-yl)(2,6-dimethylpyridin-4-yl)(1-methyl-1H-1,2,3-triazol-5-yl)methanol], in assay [1], the dissociation constant Kd was determined as 180 nM. In addition, in assay [2], the IC50 was found to be 210 nM and the inhibition at 6 µM stood at 103%.

Regarding `COc1nc2ccc(C(O)(c3cc(C)nc(C)c3)c3cnnn3C)cc2c(Cl)c1Cc1ccc(C(F)(F)F)cc1` (single isomer, unassigned) [Example 84c, (4-Chloro-2-methoxy-3-(4-(trifluoromethyl)benzyl)quinolin-6-yl)(2,6-dimethylpyridin-4-yl)(1-methyl-1H-1,2,3-triazol-5-yl)methanol], the dissociation constant Kd in assay [1] was determined as 0.003 nM. Moreover, in assay [2] (6 µM), the “RORγt … % inhibition @ 6 µM” value is on record as 100%. The molecule also came in with an IC50 in assay [2] of 6 nM.

In the case of `COc1nc2ccc(C(O)(c3cnnn3C)C3CCOCC3)cc2c(Cl)c1Cc1ccc(C(F)(F)F)cc1` (single isomer, unassigned) [Example 85b, (4-Chloro-2-methoxy-3-(4-(trifluoromethyl)benzyl)quinolin-6-yl)(1-methyl-1H-1,2,3-triazol-5-yl)(tetrahydro-2H-pyran-4-yl)methanol], in assay [1], the equilibrium dissociation constant (Kd) is 0.31 nM. For the same molecule, in assay [2], 1.3 nM corresponded to half-maximal inhibition (IC50) and the inhibition at 6 µM worked out at 99%.

These data come from patent publication EP3057951B1, “METHYLENE LINKED QUINOLINYL MODULATORS OF ROR-GAMMA-T” (Janssen Pharmaceutica NV, priority 2013, dated 2015).
